“Also recorded” adds a separate entry of the source. A value given as a limit tells only on which side of the number the result lay.

These results are taken from patent US20090226952A1, “SCREENING METHOD FOR COMPOUNDS WITH A[…]” (Isis Innovation Limited, priority 2005, published 2009).

Assay [1] relates to transient working neuronal assemblies in in vitro hippocampal slices. The experiment in a line: Optical imaging with voltage sensitive dye Di-4-ANEPPS (ΔF/F) of paired-pulse stimulated hippocampal slices. Format: cell-based, rat. Conditions: for effect on population activity / prolongation of activation of the neuronal assembly after the second pulse / time for which neurons remain activated / return to resting baseline after peak activation following the second stimulating pulse: optical imaging; for effect on population activity / prolongation of activation of the neuronal assembly after the second pulse: vs control ACSF; for time for which neurons remain activated / return to resting baseline after peak activation following the second stimulating pulse: morphine 10-100 μM, gabapentin 100-150 μM, thiopental 80-150 μM, propofol 10-50 μM, control returns within 60 ms; for optical ΔF/F peak 2 value vs control / optical ΔF/F peak 1 value vs control: paired t-test n=6; for time from peak to half peak activity, peak 2 (t3−t4), vs control: ΔF/F data. On the procedure: (§1) In the study, collective synchronised neuronal activity, i.e. working neuronal assemblies^3, were recorded while monitoring in parallel the underlying synaptic electrical activity (FIG. 1a). Accordingly, the use of the voltage sensitive dye, Di-4-ANEPPS, was combined with standard electrophysiological field potential recordings to measure the excitatory post-synaptic potentials (EPSPs). Under control conditions in physiological saline, electrical stimuli in a paired-pulse paradigm^18 were applied to the Schaffer Collaterals of in vitro hippocampal slices.
(§2) Following terminal anaesthesia using halothane, 400 μm transverse hippocampal slices from 2 week Wistar rats were obtained and left to rest for one hour in a high humidity chamber with oxygenated artificial cerebrospinal fluid (ACSF) (in mM: 124 NaCl, 22 NaHCO3, 10 glucose, 5 KCl, 2 CaCl2, 1.25 MgSO4, 1.25 NaH2PO4) before being submersed in dye solution (4% dye stock solution (in mM: 0.2 mM Di-4-ANEPPS (Molecular Probes, Oregon, USA) in 2.7% ethanol, 0.13% Cremaphor EL), 48% fetal bovine serum and 24% ACSF and 24% ACSF cellulose) for 25 minutes followed by a further one hour rest in the humidity chamber with oxygenated ACSF.
(§3) Electrical stimulation (paired pulse 8-10V, 60 ms interval, 0.1 ms duration) was generated by an isolated stimulator (Digitimer Ltd, UK) via a bipolar electrode (FHC, Maine, USA) and positioned just above the CA3 region. In this way, paired pulses were applied along the Shaffer Collaterals so as to elicit a spreading depolarising wave that formed from the point of stimulation and moved along the pathway towards the CA1 region. A halogen lamp provided the excitatory wavelengths for the dye (through a λ=530±10 nm filter) while the emission was captured on a 2 mm×3 mm CCD sensor (MiCAM01, BrainVision, Tokyo, Japan) through an absorption filter (λ=590 nm). Optical recordings were acquired at a rate of 0.7 ms frame^−1 for 682 frames. 16 optical recordings were averaged for each experimental condition to reduce the effects of dye bleaching and increase the signal-to-noise ratio. Analysis included ΔF/F calculations and a 5×5×3 Gaussian matrix filter (BrainVision Analysis software and Igor Pro 5, Wavemetrics, USA). As indicated above, such optical imaging was combined with standard electrophysiological field potential recordings to measure the excitory post synaptic potentials (EPSPs). […] All statistical comparisons were performed using student t-test of paired samples, n=6; 95% confidence interval.

Assay [2] relates to in vitro hippocampal slices (Schaffer Collaterals, excitatory post-synaptic potentials). The experiment in a line: Electrophysiological field potential (EPSP) recordings in paired-pulse stimulated hippocampal slices. Conditions: for time from peak to half peak activity, peak 2 (t3−t4), vs control: EPSP data; for paired-pulse facilitation in EPSP recordings, treatment vs control / EPSP peak 1 value vs control / EPSP peak 2 value vs control: morphine 10-100 μM, gabapentin 100-150 μM, thiopental 80-150 μM, propofol 10-50 μM; for EPSP peak 1 value vs control / EPSP peak 2 value vs control: paired t-test n=6. In kind it is cell-based, rat. The procedure:
as §1, §2, §3

Consider `NCC1(CC(=O)O)CCCCC1` [gabapentin], for which, in assay [1], the “effect on population activity / prolongation of activation of the neuronal assembly after the second pulse” value was “not substantially altered; also recorded: no such effect”; the “time for which neurons remain activated / return to resting baseline after peak activation following the second stimulating pulse” value is given as ≤ 60 ms; the “optical ΔF/F peak 2 value vs control” value is recorded as “significant difference”; the “time from peak to half peak activity, peak 2 (t3−t4), vs control” value (shortened to “time from peak … vs control”) is “no significant difference”. For the same compound, in assay [2], the “time from peak … vs control” value is “no significant difference”; the “paired-pulse facilitation in EPSP recordings, treatment vs control” value is “no significant difference”; the “EPSP peak 1 value vs control” value is “not significantly changed”; the “EPSP peak 2 value vs control” value was “not significantly changed”.

For `CN1CC[C@]23c4c5ccc(O)c4O[C@H]2[C@@H](O)C=C[C@H]3[C@H]1C5` [morphine], the “time for which neurons remain activated / return to resting baseline after peak activation following the second stimulating pulse” value in assay [1] is listed as ≤ 60 ms.

As to `CC(C)c1cccc(C(C)C)c1O` [propofol, 2,6-diisopropylphenol], in assay [1], the “paired-pulse facilitation in ΔF/F recordings, treatment vs control” value is recorded as “did not significantly change”; the “effect on population activity / prolongation of activation of the neuronal assembly after the second pulse” value is on record as “prolonged activation”; the “optical ΔF/F peak 1 value vs control” value is recorded as “did not differ significantly”; the “optical ΔF/F peak 2 value vs control” value is “significant reduction”. The “time from peak … vs control” value in assay [1] is “very highly significant differences”. In assay [2], the “time from peak … vs control” value is recorded as “low statistical difference”; the “paired-pulse facilitation in EPSP recordings, treatment vs control” value is “did not significantly differ”; the “EPSP peak 1 value vs control” value was “significantly reduced”; the “EPSP peak 2 value vs control” value is recorded as “significantly reduced”.

As for `CCCC(C)C1(CC)C(=O)NC(=S)NC1=O` (stereo not shown) [thiopental, 5-ethyl-5-(1-methylbutyl)-2-thiobarbituricacid], in assay [1], the “paired-pulse facilitation in ΔF/F recordings, treatment vs control” value is on record as “abolished”; the “effect on population activity / prolongation of activation of the neuronal assembly after the second pulse” value is on record as “prolonged activation”; the “time for which neurons remain activated / return to resting baseline after peak activation following the second stimulating pulse” value is “up to 500 ms”; the “optical ΔF/F peak 1 value vs control” value is on record as “did not differ significantly”. In assay [1], the “optical ΔF/F peak 2 value vs control” value is reported as “significant reduction” and the “time from peak … vs control” value is recorded as “highly significant”. In addition, in assay [2], the “time from peak … vs control” value is “no significant change”; the “paired-pulse facilitation in EPSP recordings, treatment vs control” value is on record as “abolished”; the “EPSP peak 1 value vs control” value is “significantly reduced”; the “EPSP peak 2 value vs control” value was “significantly reduced”.
